From patent US20090082427A1, “Composition comprising wortmannin and its topical use for reducing human hair growth” (Reckitt Benckiser (UK) Limited, priority 2005, published 2009)

Legend:
Assay type in all cases: cell-based, human
dermal fibroblasts = assay: cell proliferation of dermal fibroblasts, cell number after 8 days; conditions: wortmannin 70 μm in medium, CV (medium + DMSO vehicle) = 100
Protocol: (§1) A study was carried out to assess the effects of wortmannin on cell proliferation for dermal fibroblasts, follicular dermal papilla fibroblasts derived from 5 normal adults (3 females and 2 males).
(§2) A composition was prepared comprising wortmannin at 10 milli-molar in a vehicle of dimethyl sulfoxide (DMSO). The levels of wortmannin were such that when the composition was added to the growth medium in the experiments, the level of wortmannin in the experimental medium was 50, 70, 100 or 140 micro-molar and the respective level of DMSO was 0.5%, 0.7%, 1.0%, 1.4% by weight.
(§3) The control experiments were carried out using as the growth medium CM (control medium only as detailed below) and CV (control medium containing the DMSO vehicle but free of wortmannin). The experiments using the wortmannin composition were carried out using the wortmannin compositions in the control medium.
(§4) For experiments with dermal fibroblasts and follicular dermal papilla fibroblasts, Control Medium was RPMI 1640 media supplemented with penicillin/streptomycin, L-glutamine and Foetal Calf Serum.
(§5) Results in terms of percentage cell number change after 8 days of the cells/follicles in the compositions were as follows in table 1.

[1] = system: follicular dermal papilla fibroblasts; assay: cell proliferation of follicular dermal papilla fibroblasts, cell number after 8 days; conditions: wortmannin 70 μm in medium, CV = 100
Protocol: as §1, §2, §3, §4, §5

[2] = system: hair follicle keratinocytes; assay: cell proliferation of hair follicle keratinocytes, cell number after 8 days; conditions: CV = 100
Protocol: A study carried out to assess the effects of wortmannin on cell proliferation for hair follicle keratinocytes was performed on cells from 1 normal healthy individual.
as §2, §3
For experiments with hair follicle keratinocytes, Control Medium was keratinocyte serum-free medium (KSF-M) medium supplemented with penicillin/streptomycin, L-glutamine, epidermal growth factor and bovine pituitary extract.
as §5

[3] = system: Anagen (IV) intact hair follicles; assay: growth of isolated intact Anagen (IV) hair follicles, length increase after 8 days; conditions: CM 26, CV 9
Protocol: A study was carried out to assess the effects of wortmannin on growth of Anagen (IV) intact hair follicles isolated intact from 2 females.
as §2, §3
For experiments with intact hair follicle, Control Medium was Williams E medium supplemented with fungizone, penicilin/streptomycin, L-glutamine, insulin-like growth factor and hydrocortisone.
as §5

COC[C@H]1OC(=O)c2coc3c2[C@@]1(C)C1=C(C3=O)[C@@H]2CCC(=O)[C@@]2(C)C[C@H]1OC(C)=O [wortmannin, 11-(acetyloxy)-1,6b,7,8,9a,10,11,11b-octahydro-1-(methoxymethyl)-9a,11b-di-methyl-[1S-(1α, 6bα,9aβ,11α, 11bβ)]-3H-furo[4,3,2-de]indeno[4,5-h]-2-benzopyran-3,6,9-trione]
Dermal fibroblasts percentage cell number (normalized on CV results) (dermal fibroblasts): 25%
dermal papilla fibroblasts percentage cell number (normalized on CV results) [1]: 34%
Hair follicle keratinocytes percentage cell number (normalized on CV results) ([2]; wortmannin 50 μm in medium): 75%
Hair follicle keratinocytes percentage cell number (normalized on CV results) ([2]; wortmannin 70 μm in medium): 40%
Hair follicle keratinocytes percentage cell number (normalized on CV results) ([2]; wortmannin 100 μm in medium): 30%
Whole hair follicles (length increase in %) ([3]; wortmannin 70 μm in medium): 4%
Whole hair follicles (length increase in %) ([3]; wortmannin 140 μm in medium): 4%
